13 compounds from patent publication US7514434B2, “Heterocyclic compounds having an oxadiazole moiety and hydro isomers thereof” (Rigel Pharmaceuticals, Inc., priority 2004, dated 2009) can be followed below.

Assay [1] relates to HCV replicon (5-2 Luc replicon-comprising cells). In words: HCV replicon assay (luciferase). The class given is cell-based. The following applies: 5-2 Luc replicon cells, 24 hours with compound; read-out: Replicon IC50 (50% reduction in luciferase activity). From the text: In one embodiment, the inhibitory activity of the compounds can be confirmed in a replicon assay that assesses the ability of a test compound to block or inhibit HCV replication in replicon cells. One example of a suitable replicon assay is the liver cell-line Huh 7-based replicon assay described in Lohmann et al., 1999, Science 285:110-113. A specific example of this replicon assay which utilizes luciferase translation is provided in the Examples Section. In one embodiment of this assay, the amount of test compound that yields a 50% reduction in translation as compared to a control cell (IC50) may be determined.
The inhibitory activity of certain exemplary compounds of the invention was confirmed using an HCV replicon assay. The HCV replicon can include such features as the HCV 5′ untranslated region including the HCV IRES, the HCV 3′ untranslated region, selected HCV genes encoding HCV polypeptides, selectable markers, and a reporter gene such as luciferase, GFP, etc. In the assay, actively dividing 5-2 Luc replicon-comprising cells (obtained from Ralf Bartenschlager; see Lohmann et al., 1999, Science 285:110-113) were seeded ata density of between about 5,000 and 7,500 cells/well onto 96 well plates (about 90 μl of cells per well) and incubated at 37° C. and 5% CO2 for 24 hours. Then, the test compound (in a volume of about 10 μl) was added to the wells at various concentrations and the cells were incubated for an additional 24 hours before luciferase assay. Briefly, the Bright-Glo reagent was diluted 1:1 with PBS and 100 μl of diluted reagent was added to each well. After 5 min of incubation at room temperature, luciferin emission was quantified with a luminometer. In this assay, the amount of test compound that yielded a 50% reduction in luciferase activity (IC50) was determined.
On the technique in general: In antiviral work, replicon cells carry a viral genome segment that copies itself.

In assay [2] the test system is HCV nonstructural protein NS5A or NS3. Kind of assay: Quantitative Western blot assay in 9-13 replicon cells. The class given is cell-based. The following applies: second symbol of column Replicon/Western, 48 hours with compound, read-out: Western IC50 (50% reduction in the amount of NS5A or NS3 protein). As for the experimental part: Alternatively, the inhibitory activity of the compounds can be confirmed using a quantitative Western immunoblot assay utilizing antibodies specific for HCV non-structural proteins, such as NS3, NS4A NS5A and NS5B. In one embodiment of this assay, replicon cells are treated with varying concentrations of test compound to determine the concentration of test compound that yields a 50% reduction in the amount of a non-structural protein produced as compared to a control sample (IC50). A single non-structural protein may be quantified or multiple non-structural proteins may be quantified. Antibodies suitable for carrying out such immunoblot assays are available commercially (e.g., from BIODESIGN International, Saco, Me.).
Certain exemplary compounds of the invention were also tested for their ability to inhibit HCV replication using a quantitative Western blot analysis with antibodies specific for the HCV nonstructural protein NS5A or NS3. Actively dividing 9-13 replicon cells were seeded into 6-well plates at a density of 1×10^5 cells/well in a volume of 2 ml/well and incubated at 37° C. and 5% CO2 for 24 hours. Various concentrations of test compounds (in a volume of 10 ul) were added to the wells and the cells incubated for another 48 hours. […] The membrane was then soaked in substrate solution (Pierce) and exposed to a film or quantified using an imager. […]

On to `CC(=O)N1CCN(c2cccc(Cl)c2-c2cc(-c3ccc(-c4noc(C(Cl)Cl)n4)c(F)c3)on2)CC1` [5-Dichloromethyl-3-[4-[3′-[2′-chloro-6′-(N-acetyl-4-piperazinyl)phenyl]-5′-isoxazolyl]-2-fluorophenyl]-1,2,4-oxadiazole], for which the IC50 in assay [1] was not above 10 µM.

As to `Cc1cc(-c2noc(C(Cl)Cl)n2)ccc1-c1cc(-c2c(Cl)cccc2Cl)no1` [(III) R2=Cl, R6=Cl, R10=Me, 5-Dichloromethyl-3-[4-[3′-(2′,6′-dichlorophenyl)-5′-isoxazolyl]-3-methylphenyl]-1,2,4-oxadiazole], the IC50 in assay [1] was not above 10 µM. Still for that read-out and setting: the figure for `COc1cccc(C(F)(F)F)c1-c1cc(-c2ccc(-c3noc(C(Cl)Cl)n3)cc2)on1` [(III) R2=CF3, R6=OMe, 5-Dichloromethyl-3-[4-[3′-(2′-methoxy-6′-trifluoromethylphenyl)-5′-isoxazolyl]phenyl]-1,2,4-oxadiazole] is not above 10 µM; for `Clc1cccc(Cl)c1-c1cc(-c2ccnc(-c3noc(C(Cl)Cl)n3)c2)on1` [(Ia) R2=Cl, R6=Cl, 5-Dichloromethyl-3-[4-[3′-(2′,6′-dichlorophenyl)-5′-isoxazolyl]-4-pyridyl]-1,2,4-oxadiazole] it is more than 10 µM; for `Fc1cccc(C(F)(F)F)c1-c1cc(-c2ccc(-c3noc(C(Cl)Cl)n3)cc2)on1` [(III) R2=CF3, R6=F, 5-Dichloromethyl-3-[4-[3′-(2′-fluoro-6′-trifluoromethylphenyl)-5′-isoxazolyl]phenyl]-1,2,4-oxadiazole] it is not above 10 µM. Turning to `Clc1cccc(Cl)c1-c1cc(-c2cccc(-c3noc(C(Cl)Cl)n3)c2)on1` [(I) R2=Cl, R6=Cl, 5-Dichloromethyl-3-[3-[3′-(2′,6′-dichlorophenyl)-5′-isoxazolyl]phenyl]-1,2,4-oxadiazole], the IC50 in assay [2] and in assay [1] was not above 10 µM each time. Turning to `Fc1cccc(Cl)c1-c1cc(-c2ccc(-c3noc(C(Cl)Cl)n3)cc2)on1` [(III) R2=Cl, R6=F, 5-Dichloromethyl-3-[4-[3′-(2′-chloro-6′-fluorophenyl)-5′-isoxazolyl]phenyl]-1,2,4-oxadiazole], in assay [1], the IC50 is not above 10 µM. On to `CC(=O)N1CCN(c2cccc(Cl)c2-c2cc(-c3ccc(-c4noc(C(Cl)Cl)n4)c(Cl)c3)on2)CC1` [5-Dichloromethyl-3-[4-[3′-[2′-chloro-6′-(N-acetyl-4-piperazinyl)phenyl]-5′-isoxazolyl]-2-chlorophenyl]-1,2,4-oxadiazole], for which the half-inhibitory concentration (IC50) in assay [1] is more than 10 µM. Take `Clc1cc(-c2cc(-c3c(Cl)cccc3Cl)no2)ccc1-c1noc(C(Cl)Cl)n1` [(III) R2=Cl, R6=Cl, R8=Cl, 5-Dichloromethyl-3-[4-[3′-(2′,6′-dichlorophenyl)-5′-isoxazolyl]-2-chlorophenyl]-1,2,4-oxadiazole]: the IC50 in assay [1] was more than 10 µM. In the case of `Clc1cccc(Cl)c1-c1cc(-c2ccc(-c3noc(C(Cl)Cl)n3)cc2)on1` [(III) R2=Cl, R6=Cl, 5-Dichloromethyl-3-[4-[3′-(2′,6′-dichlorophenyl)-5′-isoxazolyl]phenyl]-1,2,4-oxadiazole], the IC50 in assay [1] is not above 10 µM. For the compound `COc1cccc(C(F)(F)F)c1-c1cc(-c2cccc(-c3noc(C(Cl)Cl)n3)c2)on1` [(I) R2=CF3, R6=OMe, 5-Dichloromethyl-3-[3-[3′-(2′-methoxy-6′-trifluoromethylphenyl)-5′-isoxazolyl]phenyl]-1,2,4-oxadiazole], the IC50 in assay [1] was more than 10 µM. The same measure, in the same setting: the figure for `Fc1cc(-c2cc(-c3c(Cl)cccc3Cl)no2)ccc1-c1noc(C(Cl)Cl)n1` [(I) R2=Cl, R6=Cl, R8=F, 5-Dichloromethyl-3-[4-[3′-(2′,6′-dichlorophenyl)-5′-isoxazolyl]-6-fluorophenyl]-1,2,4-oxadiazole] is not above 10 µM.

In the case of `Clc1cccc(Cl)c1-c1cc(-c2ccccc2-c2noc(C(Cl)Cl)n2)on1` [(II) R2=Cl, R6=Cl, 5-Dichloromethyl-3-[2-[3′-(2′,6′-dichlorophenyl)-5′-isoxazolyl]phenyl]-1,2,4-oxadiazole], the IC50 in assay [1] was not above 10 µM.

Usually IC50 stands for the midpoint of a concentration-inhibition curve.
